Test results taken from patent US10653676B2 (Dana-Farber Cancer Institute, Inc., priority 2010, dated 2020).

Columns and labels:
[1] = molecular target: T1, USP1/UAF1 complex (Homo sapiens, UniProt O94782, G670A/G671A); details: bioactive libraries; in the range of Al-Ub-treated positive control; previously shown, US 2008/0167229 A1; cited from earlier work
T1 construct: This modified full length USP1 clone was PCR amplified and subcloned into pFastBac-HT vectors; His tag (N); made in house; host or cells: Sf9 insect cells (baculovirus)
T1 sequence (O94782 whole entry G670A/G671A): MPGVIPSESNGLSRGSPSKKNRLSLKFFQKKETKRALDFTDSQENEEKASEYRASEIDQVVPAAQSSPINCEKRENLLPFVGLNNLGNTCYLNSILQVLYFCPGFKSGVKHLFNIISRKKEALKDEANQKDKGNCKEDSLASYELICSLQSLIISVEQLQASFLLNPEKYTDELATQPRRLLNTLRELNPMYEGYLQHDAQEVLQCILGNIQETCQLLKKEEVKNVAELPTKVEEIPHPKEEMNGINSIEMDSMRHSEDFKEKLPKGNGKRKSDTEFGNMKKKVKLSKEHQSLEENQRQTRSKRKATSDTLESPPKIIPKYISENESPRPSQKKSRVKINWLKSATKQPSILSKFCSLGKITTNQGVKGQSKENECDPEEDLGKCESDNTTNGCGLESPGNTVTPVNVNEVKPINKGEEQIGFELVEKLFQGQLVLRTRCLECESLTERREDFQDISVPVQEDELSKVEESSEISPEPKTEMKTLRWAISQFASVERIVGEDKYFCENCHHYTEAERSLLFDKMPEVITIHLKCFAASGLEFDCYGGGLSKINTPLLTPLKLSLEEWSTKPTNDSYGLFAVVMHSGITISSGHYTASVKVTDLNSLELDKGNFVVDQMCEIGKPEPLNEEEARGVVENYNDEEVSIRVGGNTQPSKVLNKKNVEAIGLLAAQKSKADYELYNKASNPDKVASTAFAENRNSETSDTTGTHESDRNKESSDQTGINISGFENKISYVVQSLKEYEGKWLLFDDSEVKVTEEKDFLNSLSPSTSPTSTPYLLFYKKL
T1 sequence (Q8TAF3 whole entry partner): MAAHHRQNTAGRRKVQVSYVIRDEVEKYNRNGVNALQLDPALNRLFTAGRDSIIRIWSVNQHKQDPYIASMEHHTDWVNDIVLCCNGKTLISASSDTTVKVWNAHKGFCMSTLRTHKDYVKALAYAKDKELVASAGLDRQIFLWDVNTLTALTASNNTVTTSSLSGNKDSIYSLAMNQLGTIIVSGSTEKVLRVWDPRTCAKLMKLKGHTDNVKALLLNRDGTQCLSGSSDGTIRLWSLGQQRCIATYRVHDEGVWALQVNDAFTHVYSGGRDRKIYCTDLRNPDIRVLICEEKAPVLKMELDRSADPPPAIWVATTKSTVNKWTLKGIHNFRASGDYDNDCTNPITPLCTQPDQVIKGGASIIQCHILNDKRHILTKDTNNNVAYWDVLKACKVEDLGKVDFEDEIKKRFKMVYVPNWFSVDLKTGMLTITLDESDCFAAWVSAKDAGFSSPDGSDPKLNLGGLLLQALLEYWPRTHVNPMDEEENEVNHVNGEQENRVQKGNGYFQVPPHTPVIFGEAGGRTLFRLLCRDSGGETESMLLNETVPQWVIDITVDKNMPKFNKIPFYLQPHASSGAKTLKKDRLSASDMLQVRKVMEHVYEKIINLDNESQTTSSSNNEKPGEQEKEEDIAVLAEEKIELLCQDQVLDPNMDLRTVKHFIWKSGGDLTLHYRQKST

[2] = tested on: HR pathway-proficient breast tumor line; details: preliminary xenograft studies, data not shown
Text: Preliminary breast cancer xenograft studies with one HR pathway-proficient breast tumor line have been conducted.

[3] = molecular target: T1, USP1/UAF1 complex; test: high throughput screening for inhibitors of USP1 deubiquitinating activity; assay type: biochemical; details: library of approximately 150,000 compounds
Description: The ubiquitin-Rho based enzyme assay for high throughput screening was established in a 384-well format. The reaction buffer containing and USP1/UAF1 complex were added in 384 well plates using automated liquid handling robot-Bio-Tek Microfill (Bio-Tek Instrments Inc., VT), followed by addition of the compounds (in DMSO) from the compound library plates to wells using a pin transfer robotic system at a final concentration of 10 μM. The reaction was composed of 0.1 nM purified USP1/UAF complex, 75 nM ubiquitin Rhodamine (Ub-Rho, Boston Biochem, U-600) and 2 μM ubiquitin. Fluorescence was monitored in a FluoStar Galaxy Fluorometer (BMG Labtech). Fluorescence emission at 535 nm (λex=485 nm) was measured in an automated plate reader Envision 2 (Perkin Elmer, Mass.).
(§1) In order to develop a highly sensitive assay with easy readout for high throughput detection, the fluorogenic compound Ubiquitin-7-amido-4-methylcoumarin (AMC-Ub, Boston Biochem) was used as a substrate for USP1/UAF1 enzyme complex. USP1 catalyzes the cleavage of AMC-Ub, releasing free AMC moiety, which leads to increase in fluorescence emission at 460 nm (λex=380 nm). Dang et al. (1998) Biochemistry 37:1868-79. Catalytic activity towards AMC-Ub increases 35 fold compared to USP1 enzyme alone. Initial enzyme assay development was performed in 96-well plates with 100 μl reaction volume containing 20 mM HEPES-KOH, 0.1 mg/ml ovalbumin (Sigma), 0.5 mM EDTA, and 10 mM DTT. 2.5 nM USP1/UAF1 enzyme complex was mixed with the reaction buffer, incubated at 37° C. for 10 minutes and then 0.3 μM AMC-Ub was added. Fluorescence was measured using a Fluostar Galaxy Fluorometer (BMG Labtech Inc.).
Once the preliminary enzyme assay was established in 96-well format, it was optimized for 384 wells for high throughput screening (HTS) of inhibitors. The major points to be considered were the volume of the reaction and amount of AMC-Ub substrate to be used in the assay. Since the price of AMC-Ub is very high, in order to make it a feasible assay for HTS, lowest workable amount of the AMC conjugate was used. Reaction volume was minimized to 30 μl in order to meet the recommendation of ICCB-L screening facility (Harvard). In the preliminary optimization experiment, a series of pilot experiments were performed with varying AMC-Ub concentrations (0.025 μM to 0.2 μM), along with the varying concentration of USP1/UAF1 complex (0.2 nM to 3.2 nM). […] After incubating the enzyme and buffer at 37° C. for 10 minutes, AMC-Ub was added and fluorescence emission at 460 nm (λex=380 nm) was measured in an automated plate reader Envision 2 (Perkin Elmer). Fluorescence reading for all time points up to one hour was noted and the data for different AMC-Ub concentration range was plotted with each USP1/UAF1 enzyme complex concentration. […]

[4] = molecular target: T1, USP1/UAF1 complex; test: ubiquitin-AMC in vitro deubiquitination enzyme assay; assay type: biochemical; details: 4 hour preincubation; AMC-Ub in vitro enzyme assay; read-out: IC50
Description: Purified USP1/UAF1 complex was incubated with 1 μM C527 or DMSO for indicated time, followed by the addition of Ub-AMC at 0.5 μM final concentration. The fluorescence at […] was measured to indicate the enzymatic activity of USP1. […] 5A.
The in vitro enzymatic assays were performed using purified proteins from Sf9 cells as described previously (Cohn et al.). The assays using ubiquitin-AMC (Ub-7-amido-4-methylcoumarin; Boston Biochem) as substrate was carried out in a reaction buffer containing 20 mM HEPES-KOH (pH 7.8), 20 mM NaCl, 0.1 mg/ml ovalbumin, 0.5 mM EDTA and 10 mM dithiothreitol. The fluorescence was measured by FluoStar Galaxy Fluorometer (BMG Labtech). For the Ub-vinylsulfone (VS) assay, the proteins were incubated with Ub-VS at 0.5 μM final concentration for 1 h at 30° C., followed by the immunoblotting analysis.
as §1, with “Catalytic activity towards AMC-Ub increases 35 fold compared to USP1 enzyme alone.” left out
Hits from the initial screening were analyzed further in secondary screening. In this step, the compounds were re-tested for inhibition using the AMC-Ub in vitro enzyme assay. After reconfirming inhibition, different concentration range of the inhibitors were tested to show dose dependency of inhibition and IC50 calculation.

[5] = tested on: HeLa cells; test: DNA damage response markers by immunoblotting; assay type: cell-based, human; details: 24 hrs, MMC 1 μM positive control, FIG. 9A
Description: FIG. 9 is a composite figure showing that C527 causes DNA damage and inhibits the proliferation of tumor cells. […] HeLa cells were treated with C527 at the indicated concentrations for 24 hrs, and cells were subjected to immunoblotting. Mitomycin C (MMC, 1 μM) was used as a positive control. […] HeLa cells were seeded in a 6-well plate and treated with C527 at the indicated concentrations. Cell proliferation was evaluated using a clonogenic assay.
Impaired HR integrity may lead to genotoxic effect. Genotoxic agents are known to directly activate DNA damage response pathways, resulting in FANCD2 monoubiquitination and CHK1 phosphorylation (FIG. 9A).

[6] = tested on: endogenous DUB enzyme complexes; test: HA-Ub-VS labelling of other endogenous DUBs in HeLa cell extracts; assay type: biochemical, human; details: HeLa cell extracts pretreated 4 h (Ub-Ald 5 μM), then Ub-VS 40 min at 30° C.; FIG. 7
Description: FIG. 7 is a composite figure depicting preferential inhibition of the activity of native USP1/UAF1 by C527. HeLa cell extracts were incubated with ubiquitin-aldehyde (Ub-Ald, 5 μM) or C527 at indicated concentrations for 4 h, followed by the addition of 0.5 μM Ub-Vs for 40 min. The reaction was split into two aliquots and subjected to immunoblotting for HA or USP1, respectively.
The ability of C527 to inhibit the deubiquitinating activity of native USP1 complexes derived from human cells was determined next (FIG. 7). For this purpose, the HA-tagged ubiquitin-VS, an affinity reagent known to covalently modify and trap active DUB enzymes in cell extracts was used. Cell extracts prepared from HeLa cells were pretreated with increasing concentrations of C527 for 4 h, followed by the incubation with Ub-VS for 40 min at 30° C. The enzymatic activity of endogenous DUBs was indicated by the conjugation of Ub-VS, detected as HA-labeling (see FIG. 7, high molecular weight bands). […] Ub-VS conjugation was inhibited by ubiquitin-aldehyde (Ub-Ald), a non-specific inhibitor of DUBs (lane 3).

| Molecule | fluorescence signal in high throughput screen [1] | identified as inhibitor of USP1 in initial in vitro screening [3] | other results |
| --- | --- | --- | --- |
| CC[N+](C)(CC)CCC[n+]1c(-c2ccccc2)c2cc(N)ccc2c2ccc(N)cc21.[I-].[I-] [Biomol AP401 (propidium iodide), propidium iodide] | substantial low fluorescence signal |  |  |
| CC(C)C[C@H](NC(=O)[C@H](Cc1ccccc1)NC(=O)c1cnccn1)B(O)O [Bortezomib] |  |  | FA/BRCA pathway [2]: inhibited the FA/BRCA pathway |
| NC1=C(Cl)C(=O)c2ccccc2C1=O [Formula III (933)] |  | inhibitors of USP1 |  |
| O=C1Cc2ccccc2C(=O)N1Cc1ccco1 [Formula V (947)] |  | inhibitors of USP1 | IC50 [4]: 7.5 µM |
| COc1ccc(CN2C(=O)Cc3ccccc3C2=O)cc1OC [Formula VI (009)] |  | inhibitors of USP1 | IC50 [4]: 2.4 µM |
| CO[C@@]12[C@H](COC(N)=O)C3=C(C(=O)C(C)=C(N)C3=O)N1C[C@@H]1N[C@@H]12 [MMC, mitomycin C] |  |  | markers of the DNA damage response (FANCD2 monoubiquitination, CHK1 phosphorylation) [5]: can activate markers of the DNA damage response |
| CCCCCCCCCCCCCCCC(=O)C1=C(O)C(CO)OC1=O (centres unmarked) [RK-682] | substantial low fluorescence signal |  |  |
| CC1(C)CCC2=C(O1)c1ccccc1C(=O)C2=O [β-lapachone] | substantial low fluorescence signal |  |  |
| Ub-aldehyde [reference compound] |  |  | Ub-VS labeling of endogenous DUBs (HA-labeling) [6]: inhibited |
